Source: publication PMC11992225, “Antibacterial compounds against non-growing and intracellular bacteria” (npj Antimicrobials and Resistance, 2025)
≈ marks a conversion by molar mass, not a printed value. Where two headings read alike, the source gives them in different places.

Columns and labels:
E. coli CFT073 (UPEC) = experiment: MIC, standard microdilution assay, growing UPEC; assay type: cell-based, Escherichia coli; conditions: for MIC: Escherichia coli
Summary of the method: (§1)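 Each strain was exposed to serially diluted compound in broth, in triplicate. The media were TSB for Shigella; CA-MHB at pH 7.4 (HEPES 40 mM) for S. aureus, P. aeruginosa and UPEC; and, for UPEC only, low-pH LPM (pH 5.5, 30 mM MES).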

P. aeruginosa DSM1117 = experiment: MIC, standard microdilution assay, growing P. aeruginosa; assay type: cell-based, Pseudomonas aeruginosa; conditions: Pseudomonas aeruginosa
Summary of the method: as §1

S. aureus DSM2569 = experiment: MIC, standard microdilution assay, growing S. aureus; assay type: cell-based, Staphylococcus aureus; conditions: Staphylococcus aureus
Summary of the method: as §1

non-growing UPEC CFT073 = experiment: Dilution-regrowth assay (screen, hit validation, dose-response) on stationary-phase UPEC; assay type: cell-based, Escherichia coli; conditions: for Regrowth, OD600 at 6h or 8h after dilution into drug-free medium: average; for EC50: Escherichia coli; for OD600 at 6hr, Mean: after dilution into drug-free medium
Summary of the method: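 Regrowth (OD600 after 6 h, 37 °C) of diluted non-growing CFT073, following 24 h compound treatment of 24 h stationary cultures, defines activity relative to untreated control. Screen at 20 µM, validation at 20, 10, 5 µM (duplicates), dose–response in three biological replicates fitted by five-parameter logistic.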

S. flexneri 5a M90T = experiment: MIC in tryptic soy broth, S. flexneri; assay type: cell-based, Shigella flexneri; conditions: Shigella flexneri, 5AM90T, read-out: MIC (μM) TSB
Summary of the method: as §1

Q: How did the MIC (E. coli CFT073 (UPEC); E. coli, LPM pH 5.5, read-out: MIC) turn out when `CCCCCCCCN=c1ccn(CCCCCCCCCCn2ccc(=NCCCCCCCC)cc2)cc1` [Octenidine] was run?
A: Its MIC is 0.5 µM (≈ 0.275 µg/mL).

Q: What about the MIC (E. coli CFT073 (UPEC); E. coli, pH 7.4, CA-MHB, read-out: MIC (μM) CA-MHB) of the same compound?
A: Its MIC is 1 µM (≈ 0.551 µg/mL).

Q: And the MIC (P. aeruginosa DSM1117; DSM1117, P. aeruginosa, CA-MHB pH 7.4, read-out: MIC (μM) CA-MHB)?
A: Its MIC is 4 µM (≈ 2.2 µg/mL).

Q: What about the MIC (S. aureus DSM2569; DSM2569, S. aureus, CA-MHB pH 7.4, read-out: MIC (μM) CA-MHB) of the same compound?
A: The MIC was 1 µM (≈ 0.551 µg/mL).

Q: What about the “Regrowth, OD600 at 6h or 8h after dilution into drug-free medium” value (non-growing UPEC CFT073; E. coli in 1:4 CA-MHB (pH 7.4), concentration 0.25) of the same compound?
A: Its value is 0.612.

Q: And the “Regrowth, OD600 at 6h or 8h after dilution into drug-free medium” value (non-growing UPEC CFT073; E. coli in 1:4 CA-MHB (pH 7.4), concentration 0.5)?
A: The value was 0.602.

Q: What about the “Regrowth, OD600 at 6h or 8h after dilution into drug-free medium” value (non-growing UPEC CFT073; E. coli in 1:4 CA-MHB (pH 7.4), concentration 1) of the same compound?
A: The value was 0.603.

Q: What about the “Regrowth, OD600 at 6h or 8h after dilution into drug-free medium” value (non-growing UPEC CFT073; E. coli in 1:4 CA-MHB (pH 7.4), concentration 2.5) of the same compound?
A: Its value is 0.605.

Q: And the “Regrowth, OD600 at 6h or 8h after dilution into drug-free medium” value (non-growing UPEC CFT073; E. coli in 1:4 CA-MHB (pH 7.4), concentration 5)?
A: The value was 0.549.

Q: What about the “Regrowth, OD600 at 6h or 8h after dilution into drug-free medium (average)” value (non-growing UPEC CFT073; E. coli in 1:4 CA-MHB (pH 7.4), drug concentration 10) of the same compound?
A: The value was 0.188.

Q: And the “Regrowth, OD600 at 6h or 8h after dilution into drug-free medium (average)” value (non-growing UPEC CFT073; E. coli in 1:4 CA-MHB (pH 7.4), drug concentration 30)?
A: Its value is 0.074.

Q: And the “Regrowth, OD600 at 6h or 8h after dilution into drug-free medium” value (non-growing UPEC CFT073; E. coli in LPM (pH 5.5), concentration 0.25)?
A: The value was 0.551.

Q: And the “Regrowth, OD600 at 6h or 8h after dilution into drug-free medium” value (non-growing UPEC CFT073; E. coli in LPM (pH 5.5), concentration 0.5)?
A: The value was 0.543.

Q: And the “Regrowth, OD600 at 6h or 8h after dilution into drug-free medium” value (non-growing UPEC CFT073; E. coli in LPM (pH 5.5), concentration 1)?
A: The value was 0.551.

Q: What about the “Regrowth, OD600 at 6h or 8h after dilution into drug-free medium” value (non-growing UPEC CFT073; E. coli in LPM (pH 5.5), concentration 2.5) of the same compound?
A: The value was 0.544.

Q: And the “Regrowth, OD600 at 6h or 8h after dilution into drug-free medium” value (non-growing UPEC CFT073; E. coli in LPM (pH 5.5), concentration 5)?
A: Its value is 0.198.

Q: What about the “Regrowth, OD600 at 6h or 8h after dilution into drug-free medium (average)” value (non-growing UPEC CFT073; E. coli in LPM (pH 5.5), drug concentration 10) of the same compound?
A: Its value is 0.071.

Q: And the “Regrowth, OD600 at 6h or 8h after dilution into drug-free medium (average)” value (non-growing UPEC CFT073; E. coli in LPM (pH 5.5), drug concentration 30)?
A: Its value is 0.077.

Q: What about the EC50 (non-growing UPEC CFT073; 1:4 CA-MHB pH 7.4 (black curve), medium assigned by comparison with Dataset 1, read-out: EC50 (regrowth inhibition curve, Fig. S4)) of the same compound?
A: Its EC50 is 7950 nM.

Q: And the EC50 (non-growing UPEC CFT073; E. coli, pH 7.4, regrowth delay of non-growing bacteria, 1:4 CA-MHB, 24 h treatment, OD600 6 h after 2500-fold dilution, read-out: EC50)?
A: The EC50 was 7670 nM.

Q: What about the EC50 (non-growing UPEC CFT073; LPM pH 5.5 (red curve), medium assigned by comparison with Dataset 1, read-out: EC50 (regrowth inhibition curve, Fig. S4)) of the same compound?
A: The EC50 was 4410 nM.

Q: What about the “activity against non-growing UPEC in LPM (pH 5.5) compared to 1:4 CA-MHB (pH 7.4)” value (non-growing UPEC CFT073; regrowth delay and killing, Figs. 2 and 3) of the same compound?
A: Its value is “potentiated by the low pH”.

Q: `CS[C@H]1SC[C@H]2C(=O)N(C)[C@@H](C(C)C)C(=O)OC[C@@H](NC(=O)c3cnc4ccccc4n3)C(=O)N[C@@H](C)C(=O)N(C)[C@@H]1C(=O)N(C)[C@@H](C(C)C)C(=O)OC[C@@H](NC(=O)c1cnc3ccccc3n1)C(=O)N[C@@H](C)C(=O)N2C` [Echinomycin] was tested. Which “MIC (μM) CA-MHB +PAβN” value (E. coli CFT073 (UPEC); E. coli, pH 7.4, CA-MHB with 10 μg/ml efflux pump inhibitor PaβN) did it give?
A: Its value is 40 µM (≈ 44.1 µg/mL).

Q: And the MIC (E. coli CFT073 (UPEC); pH 5.5)?
A: Its MIC is 4 µM (≈ 4.41 µg/mL).

Q: And the MIC (E. coli CFT073 (UPEC); pH 7.4, read-out: MIC (μM) 1:4 CA-MHB)?
A: The MIC was 40 µM (≈ 44.1 µg/mL).

Q: And the MIC (E. coli CFT073 (UPEC); pH 7.4, read-out: MIC (μM) CA-MHB)?
A: The MIC was 20 µM (≈ 22 µg/mL).

Q: And the MIC (P. aeruginosa DSM1117; DSM1117, pH 7.4, read-out: MIC (μM) CA-MHB)?
A: The MIC was greater than 80 µM.

Q: What about the MIC (S. aureus DSM2569; DSM2569, pH 7.4, read-out: MIC (μM) CA-MHB) of the same compound?
A: The MIC was 2 µM (≈ 2.2 µg/mL).

Q: And the MIC (S. flexneri 5a M90T)?
A: Its MIC is 4 µM (≈ 4.41 µg/mL).

Q: And the “OD600 at 6hr, Mean” value (non-growing UPEC CFT073; E. coli in 1:4 CA-MHB (pH 7.4), 0.25 μM)?
A: Its value is 0.627.

Q: And the “OD600 at 6hr, Mean” value (non-growing UPEC CFT073; E. coli in 1:4 CA-MHB (pH 7.4), 0.5 μM)?
A: The value was 0.601.

Q: And the “OD600 at 6hr, Mean” value (non-growing UPEC CFT073; E. coli in 1:4 CA-MHB (pH 7.4), 1 μM)?
A: Its value is 0.561.

Q: And the “OD600 at 6hr, Mean” value (non-growing UPEC CFT073; E. coli in 1:4 CA-MHB (pH 7.4), 2.5 μM)?
A: The value was 0.340.

Q: What about the “OD600 at 6hr, Mean” value (non-growing UPEC CFT073; E. coli in 1:4 CA-MHB (pH 7.4), 5 μM) of the same compound?
A: The value was 0.110.

Q: And the “OD600 at 6hr, Mean” value (non-growing UPEC CFT073; E. coli in 1:4 CA-MHB (pH 7.4), 10 μM)?
A: The value was 0.090.

Q: And the “OD600 at 6hr, Mean” value (non-growing UPEC CFT073; E. coli in 1:4 CA-MHB (pH 7.4), 30 μM)?
A: The value was 0.091.

Q: And the “OD600 at 6hr, Mean” value (non-growing UPEC CFT073; E. coli in LPM (pH 5.5), 0.25 μM)?
A: The value was 0.602.

Q: What about the “OD600 at 6hr, Mean” value (non-growing UPEC CFT073; E. coli in LPM (pH 5.5), 0.5 μM) of the same compound?
A: Its value is 0.564.

Q: What about the “OD600 at 6hr, Mean” value (non-growing UPEC CFT073; E. coli in LPM (pH 5.5), 1 μM) of the same compound?
A: Its value is 0.465.

Q: And the “OD600 at 6hr, Mean” value (non-growing UPEC CFT073; E. coli in LPM (pH 5.5), 2.5 μM)?
A: The value was 0.288.

Q: And the “OD600 at 6hr, Mean” value (non-growing UPEC CFT073; E. coli in LPM (pH 5.5), 5 μM)?
A: Its value is 0.215.

Q: What about the “OD600 at 6hr, Mean” value (non-growing UPEC CFT073; E. coli in LPM (pH 5.5), 10 μM) of the same compound?
A: The value was 0.181.

Q: And the “OD600 at 6hr, Mean” value (non-growing UPEC CFT073; E. coli in LPM (pH 5.5), 30 μM)?
A: Its value is 0.160.

Q: What about the EC50 (non-growing UPEC CFT073; pH 5.5) of the same compound?
A: The EC50 was 1530 nM.

Q: And the EC50 (non-growing UPEC CFT073; pH 5.5, read-out: EC50 (regrowth inhibition curve, Fig. S4))?
A: The EC50 was 1520 nM.

Q: What about the EC50 (non-growing UPEC CFT073; pH 7.4) of the same compound?
A: The EC50 was 2400 nM.

Q: What about the EC50 (non-growing UPEC CFT073; pH 7.4, read-out: EC50 (regrowth inhibition curve, Fig. S4)) of the same compound?
A: Its EC50 is 2390 nM.
